For seven compounds, GI50 and TGI results are on record in PubChem BioAssay (NCI).

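All cell lines were grown in 96-well plates and treated with compound for 48 hours. GI50 is the concentration that inhibits growth by half. TGI: concentration producing complete growth inhibition.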

Test systems include KM12 colon; COLO 205 colon; HCT-15 colon; SF-268 CNS; SN12C renal; IGROV1 ovarian; HCC-2998 colon; SK-MEL-28 melanoma; HL-60(TB) leukemia; U251 CNS.
What all share (test): NCI tumour cell line growth inhibition, 48 h

On to `CCn1cnc2c(Nc3cccc(Cl)c3)nc(N[C@@H]3CCCC[C@@H]3N)nc21`, for which the GI50 in the experiment on KM12 colon was 0.733 µM; with COLO 205 colon it was 1.19 µM; in the experiment on HCT-15 colon it was 2.08 µM; with SF-268 CNS it was 1.65 µM; with SN12C renal, 2.08 µM; in the experiment with IGROV1 ovarian it was 2 µM. Further, the GI50 with HCC-2998 colon was 1.77 µM; with SK-MEL-28 melanoma, 1.68 µM; with HL-60(TB) leukemia it was 1.78 µM; in the experiment on U251 CNS, 1.37 µM. In addition, the TGI in the experiment on KM12 colon came to 2.67 µM; with COLO 205 colon it was 2.6 µM; in the experiment with HCT-15 colon it was 8.75 µM; with SF-268 CNS, 3.89 µM; in the experiment on SN12C renal, 7.62 µM; in the experiment with IGROV1 ovarian it was 8.58 µM. Also, the TGI in the experiment on HCC-2998 colon was found to be 4.35 µM; in the experiment on SK-MEL-28 melanoma it was 3.42 µM; with HL-60(TB) leukemia it was 3.93 µM; with U251 CNS, 3.3 µM.
For the compound `Cc1cc(Cl)cc2c1NC(=O)C2(O)C(C)C(=O)c1ccc(Cl)cc1` (stereo not given), the TGI in the experiment with KM12 colon, in the experiment on COLO 205 colon, with HCT-15 colon, in the experiment on SF-268 CNS, in the experiment with SN12C renal and in the experiment on IGROV1 ovarian was greater than 100 µM each time. In addition, the TGI in the experiment with HCC-2998 colon is greater than 100 µM; with SK-MEL-28 melanoma, greater than 100 µM; in the experiment on HL-60(TB) leukemia, 43.5 µM; in the experiment with U251 CNS it was greater than 100 µM.
Consider `COc1ccc(/C=C2\CCC(C)(CN(C)C)C2=O)cc1` (stereo not given), for which the TGI in the experiment on KM12 colon, with COLO 205 colon, in the experiment with HCT-15 colon, in the experiment on SF-268 CNS, in the experiment with SN12C renal and in the experiment on IGROV1 ovarian was greater than 100 µM each time. The TGI in the experiment on HCC-2998 colon, in the experiment with SK-MEL-28 melanoma, in the experiment on HL-60(TB) leukemia and in the experiment with U251 CNS was greater than 100 µM each time.
For `CN(C)CCCc1c[nH]c2ccccc12`, the TGI in the experiment with KM12 colon, in the experiment with COLO 205 colon, in the experiment on HCT-15 colon, in the experiment with SF-268 CNS, in the experiment with SN12C renal and in the experiment with IGROV1 ovarian was greater than 100 µM throughout. Moreover, the TGI with HCC-2998 colon, in the experiment with SK-MEL-28 melanoma, in the experiment on HL-60(TB) leukemia and in the experiment on U251 CNS was greater than 100 µM each time.
Consider `CCC(=C/[C@H](C)C/C=C/C(C)=C/[C@@H](C)C(=O)[C@@H](C)[C@H](O)[C@@H](C)CC)/C=C/[C@H]1OC(=O)C=C[C@H]1C`, for which the GI50 with KM12 colon, with COLO 205 colon, with HCT-15 colon, in the experiment on SF-268 CNS, with SN12C renal and in the experiment with IGROV1 ovarian was less than 0.01 µM throughout. For the same compound, the GI50 in the experiment on HCC-2998 colon, in the experiment on SK-MEL-28 melanoma, in the experiment on HL-60(TB) leukemia and in the experiment with U251 CNS was less than 0.01 µM throughout. For the same compound, the TGI came out at 0.113 µM with KM12 colon; 0.0684 µM in the experiment on COLO 205 colon; 1.17 µM in the experiment on HCT-15 colon; 1.46 µM with SF-268 CNS; 1.36 µM in the experiment on SN12C renal; 1.27 µM in the experiment on IGROV1 ovarian. For the same compound, the TGI in the experiment with HCC-2998 colon was less than 0.01 µM; in the experiment with SK-MEL-28 melanoma it was 1.11 µM; in the experiment on HL-60(TB) leukemia, less than 0.04 µM; in the experiment with U251 CNS it was 1.35 µM.
On to `NCCC(O)(P(=O)(O)O)P(=O)(O)O`, for which the GI50 with KM12 colon, in the experiment on COLO 205 colon, in the experiment on HCT-15 colon, in the experiment on SF-268 CNS, in the experiment with SN12C renal and in the experiment on IGROV1 ovarian was greater than 100 µM in each case. Besides, the GI50 in the experiment on HCC-2998 colon, in the experiment with SK-MEL-28 melanoma, with HL-60(TB) leukemia and in the experiment on U251 CNS was greater than 100 µM in each case. Moreover, the TGI with KM12 colon, with COLO 205 colon, in the experiment on HCT-15 colon, in the experiment with SF-268 CNS, in the experiment with SN12C renal and in the experiment with IGROV1 ovarian was greater than 100 µM each time. In addition, the TGI in the experiment on HCC-2998 colon, in the experiment on SK-MEL-28 melanoma, in the experiment with HL-60(TB) leukemia and in the experiment with U251 CNS was greater than 100 µM each time.
In the case of `COc1ccc(-c2nc(-c3nc4ccc(OC)cc4[nH]3)cc3c2[nH]c2ccccc23)cc1`, the GI50 in the experiment with KM12 colon was 2.57 µM; in the experiment on COLO 205 colon, 6.76 µM; with HCT-15 colon, 2.88 µM; in the experiment on SF-268 CNS, 4.9 µM; with SN12C renal it was 3.49 µM; in the experiment with IGROV1 ovarian, 2.83 µM. For the same compound, the GI50 in the experiment with HCC-2998 colon is 6.57 µM; in the experiment on SK-MEL-28 melanoma, greater than 100 µM; with HL-60(TB) leukemia, 4.08 µM; in the experiment with U251 CNS, 2.89 µM. Further, the TGI in the experiment on KM12 colon, in the experiment on COLO 205 colon, in the experiment on HCT-15 colon, in the experiment with SF-268 CNS, with SN12C renal and in the experiment with IGROV1 ovarian was greater than 100 µM each time. In addition, the TGI in the experiment on HCC-2998 colon, with SK-MEL-28 melanoma, in the experiment on HL-60(TB) leukemia and with U251 CNS was greater than 100 µM in each case.
